Counter-ions that a name gives are not always drawn.
test system: voltage-dependent calcium channels (cerebral cortex synaptosome); assay: Measurement of voltage-dependent calcium channel activity by the use of a fluorescent pigment (fura 2); assay type: cell-based; conditions: rat cerebral cortex synaptosome, fura 2, KCl stimulation, compound incubated 10 minutes
Experimental: Measurement of Voltage-dependent Calcium Channel Activity by the use of a Fluorescent Pigment (fura 2)
Cerebral cortexes were removed from cut rat brains and disrupted roughly with scissors. These were introduced into a homogenizer, homogenized in 0.3 M saccharose and centrifuged at 4° C. (1,500 g×10 min). The resulting supernatant was further centrifuged at 4° C. (10,000 g×20 min). The resulting precipitates were suspended in 0.3 M saccharose. The suspension was layered on 0.8 M saccharose and centrifuged (10,000 g×30 min.).
4 μM fura 2/AM (Dojin Ltd.) was suspended in solution A to prepare a loading solution. To the synaptosome solution prepared in the method described above was added an equal volume of the loading solution, and the mixture was incubated for 40 minutes at room temperature.
As comparative and control compound, verapamil hydrochloride was used.

Row | IC50 [µM] | Structure (SMILES)
1 | 5.8 | CC(C)C(C#N)(CCCN1CCN(CCOc2cccc(F)c2)CC1)c1ccc(C#N)s1 (stereo not drawn) [Example 115, 1-[4-Cyano-5-methyl-4-(2-cyano-5-thienyl)hexyl]-4-[2-(3-fluorophenoxy)ethyl]piperazine]
2 | 4.9 | COc1cc(F)ccc1OCCN1CCN(CCCC(C#N)(c2ccccc2)C(C)C)CC1 (stereo not drawn) [Example 88, 1-[(4-Cyano-5-methyl-4-phenyl)hexyl]-4-[2-(2-methoxy-4-fluorophenoxy)ethyl]piperazine]
3 | 3.4 | CC(C)C(C#N)(CCCN1CCN(CCCCCOc2ccc(F)cc2)CC1)c1ccccc1 (stereo not drawn) [Example 33]
4 | 9.8 | CC(C)C(C#N)(CCCN1CCN(CCOc2ccc(F)cc2)CC1)c1ccc(C#N)cc1 (stereo not drawn) [Example 15, 1-[4-Cyano-5-methyl-4-(4-cyanonphenyl)hexyl]-4-[2-(4-fluorophenoxy)ethyl]piperazine]
5 | 4.3 | CCOC(=O)COc1cc(F)ccc1OCCN1CCN(CCCC(C#N)(c2ccccc2)C(C)C)CC1 (stereo not drawn) [Example 86, 1-[(4-Cyano-5-methyl-4-phenyl)hexyl]-4-[2 (2-ethoxycarbonylmethoxy-4-fluorophenoxy)ethyl]piperazine]
6 | 9.7 | CC(C)C(C#N)(CCN1CCN(CCOc2ccc(F)cc2)CC1)c1ccccc1 (stereo not drawn) [Example 25, 1-[(3-Cyano-4-methyl-3-phenyl)pentyl]-4-[2-(4-fluourophenoxy)ethyl]piperazine]
7 | 7.4 | CC(C)C(C#N)(CCCN1CCN(CCC(=O)Nc2ccc(F)cc2)CC1)c1ccccc1 (stereo not drawn) [Example 63, 1-[(4-Cyano-5-methyl-4-phenyl)hexyl]-4-[2-(4-fluorophenylaminocarbonyl)ethyl]piperazine]
8 | 6.8 | CC(C)C(C#N)(CCCN1CCN(CCOc2ccc(F)cc2)CC1)c1ccc(C#N)s1 (stereo not drawn) [Example 114, 1-[4-Cyano-5-methyl-4-(2-cyano-5-thienyl)hexyl]-4-[2-(4-fluorophenoxy)ethyl]piperazine]
9 | 4.2 | CC(C)C(C#N)(CCCN1CCN(CCOc2ccc([N+](=O)[O-])cc2)CC1)c1ccccc1 (stereo not drawn) [Example 8, 1-[(4-Cyano-5-methyl-4-phenyl)hexyl]-4-[2-(4-nitrophenoxy)ethyl]piperazine]
10 | 4.8 | CC(C)C(C#N)(CCCN1CCN(CCSc2ccc(F)cc2)CC1)c1ccccc1 (stereo not drawn) [Example 49, 1-[(4-Cyano-5-methyl-4-phenyl)hexyl]-4-[2-(4-fluorophenylthio)ethyl]piperazine]
11 | 1.8 | CC(C)c1cccc(N(C)CCN2CCN(CCCC(C#N)(c3ccccc3)C(C)C)CC2)c1 (stereo not drawn) [Example 92, 1-[(4-Cyano-5-methyl-4-phenyl)hexyl]-4-{2-[N-methyl(3-Isopropylanilino)ethyl]}piperazine]
12 | 10 | CC(C)C(C#N)(CCCN1CCN(CCS(=O)(=O)Nc2ccc(F)cc2)CC1)c1ccccc1 (stereo not drawn) [Example 67, 1-[(4-Cyano-5-methyl-4-phenyl)hexyl]-4-{2-[N-(4-fluorophenyl)sulfamoyl]ethyl}piperazine]
13 | 3.8 | CC(C)C(C#N)(CCCN1CCN(CCOC(=O)Sc2ccc(F)cc2)CC1)c1ccccc1 (stereo not drawn) [Example 70, 1-[(4-Cyano-5-methyl-4-phenyl)hexyl]-4-{2-[(4-fluorophenylthio)carbonyloxyl]ethyl}piperazine]
14 | 11 | CC(C)C(C#N)(CCCN1CCN(CCOc2ccc3ncccc3c2)CC1)c1ccccc1 (stereo not drawn) [Example 95, 1-[(4-Cyano-5-methyl-4-phenyl)hexyl]-4-[2-(6-quinolyloxy)ethyl]piperazine]
15 | 10 | COc1cccc(OCCN2CCN(CCCC(C#N)(c3ccccc3)C(C)C)CC2)c1OC (stereo not drawn) [Example 40, 1-[(4-Cyano-5-methyl-4-phenyl)hexyl]-4-[2-(2,3-dimethoxyphenoxy)ethyl]piperazine]
16 | 5.4 | CC(C)C(C#N)(CCCN1CCN(CCOc2cccc3cnccc23)CC1)c1ccccc1 (stereo not drawn) [Example 96, 1-[(4-Cyano-5-methyl-4-phenyl)hexyl]-4-[2-(5-isoquinolyloxy)ethyl]piperazine]
17 | 5 | C=C(C)C(C#N)(CCCN1CCN(CCOc2ccc(F)cc2)CC1)c1ccccc1 (stereo not drawn) [Example 82, 1-[5-(4-Cyano-5-methyl-4-phenyl)hexenyl]-4-[2-(4-fluorophenoxyl)ethyl]piperazine]
18 | 16 | CC(=O)N(CCN1CCN(CCCC(C#N)(c2ccccc2)C(C)C)CC1)Cc1ccccc1 (stereo not drawn) [Example 56, 1-[(4-Cyano-5-methyl-4-phenyl)hexyl]-4-[2-(N-acetyl-N-benzylamino)ethyl]piperazine]
19 | > 16 | CC(C)C(C#N)(CCCN1CCN(CCOc2ccc(-n3ccnc3)cc2)CC1)c1ccccc1 (stereo not drawn) [Example 111, 1-[(4-Cyano-5-methyl-4-phenyl)hexyl]-4-{2-[4-(imidazol-1-yl)phenoxy]ethyl}piperazine]
20 | 5.2 | CC(C)C(C#N)(CCCN1CCN(CCOc2ccc(F)c(F)c2)CC1)c1ccccc1 (stereo not drawn) [Example 35, 1-[(4-Cyano-5-methyl-4-phenyl)hexyl]-4-[2-(3,4-difluorophenoxy)ethyl]piperazine]
21 | 4.8 | CC(C)C(C#N)(CCCN1CCCN(CCOc2ccc(F)cc2)CC1)c1ccccc1 (stereo not drawn) [Example 3]

Row | IC50 [µM] | Structure (SMILES)
22 | 3.8 | CC(C)C(C#N)(CCCCN1CCN(CCOc2ccc(F)cc2)CC1)c1ccccc1 (stereo not drawn) [Example 34]
23 | 10 | CC(C)C(C#N)(CCCN1CCN(CCC(O)c2ccc(F)cc2)CC1)c1ccccc1 (stereo not drawn) [Example 60, 1-[(4-Cyano-5-methyl-4-phenyl)hexyl]-4-[-hydroxy-3-(4-flurophenyl)propyl]piperazine]
24 | 12 | CC(C)C(C#N)(CCCN1CCN(CCC(=O)c2ccc(F)cc2)CC1)c1ccccc1 (stereo not drawn) [Example 59, 1-[(4-Cyano-5-methyl-4-phenyl)hexyl]-4-[2-(4-fluorobenzoyl)ethyl]piperazine]
25 | 4 | CCCCC(C#N)(CCCN1CCN(CCOc2ccc(F)cc2)CC1)c1ccccc1 (stereo not drawn) [Example 29, 1-[(4-Cyano-4-phenyl)octyl]-4-[2-(4-fluorophenoxy)ethyl]piperazine]
26 | 8.4 | CC(C)C(C#N)(CCCN1CCN(CCOCc2ccccc2)CC1)c1ccccc1 (stereo not drawn) [Example 48, 1-[(4-Cyano-5-methyl-4-phenyl)hexyl]-4-[2-(benzyloxy)ethyl]piperazine]
27 | 8.2 | CC(C)C(C#N)(CCCN1CCN(CCNS(=O)(=O)c2ccc(F)cc2)CC1)c1ccccc1 (stereo not drawn) [Example 66, 1-[(4-Cyano-5-methyl-4-phenyl)hexyl]-4-[2-(4-fluorobenzenesulfonylamino)ethyl]piperazine]
28 | 8.8 | CC(C)C(C#N)(CCCN1CCN(CC(O)COc2ccc(F)cc2)CC1)c1ccccc1 (stereo not drawn) [Example 62, 1-[(4-Cyano-5-methyl-4-phenyl)hexyl]-4-[2-hydroxy-3-(4-fluorophenoxy)propyl]piperazine]
29 | 3.5 | CC(C)C(C#N)(CCCN1CCN(CCOc2ccccc2Br)CC1)c1ccccc1 (stereo not drawn) [Example 110, 1-[(4-Cyano-5-methyl-4-phenyl)hexyl]-4-[2-(2-bromophenoxy)ethyl]piperazine]
30 | 4.1 | CC(C)C(C#N)(CCCN1CCN(CCOc2cccc(-c3ccccc3)c2)CC1)c1ccccc1 (stereo not drawn) [Example 120, 1-[(4-Cyano-5-methyl-4-phenyl)hexyl]-4-[2-(3-phenylphenoxy)ethyl]piperazine]
31 | 2.4 | CC(C)c1ccccc1N(C)CCN1CCN(CCCC(C#N)(c2ccccc2)C(C)C)CC1 (stereo not drawn) [Example 93, 1-[(4-Cyano-5-methyl-4-phenyl)hexyl]-4-{2-[N-methyl(2-Isopropylanilino)ethyl]}piperazine]
32 | 2.6 | CC(C)C(C#N)(CCCN1CCN(CCN(c2ccccc2)C2CCCCC2)CC1)c1ccccc1 (stereo not drawn) [Example 90, 1-[(4-Cyano-5-methyl-4-phenyl)hexyl]-4-[2-(N-cyclohexylanilino)ethyl]piperazine]
33 | > 16 | CC(C)C(C#N)(CCCN1CCN(CCOc2ccncc2)CC1)c1ccccc1 (stereo not drawn) [Example 99, 1-[(4-Cyano-5-methyl-4-phenyl)hexyl]-4-[2-(4-pyridyloxy)ethyl]piperazine]
34 | 13 | CC(C)C(C#N)(CCCN1CCN(CCOc2ccc(C#N)cc2)CC1)c1ccccc1 (stereo not drawn) [Example 47, 1-[(4-Cyano-5-methyl-4-phenyl)hexyl]-4-[2-(4-cyanophenoxy)ethyl]piperazine]
35 | 2.7 | CC(C)N(CCN1CCN(CCCC(C#N)(c2ccccc2)C(C)C)CC1)c1ccccc1 (stereo not drawn) [Example 89, 1-[(4-Cyano-5-methyl-4-phenyl)hexyl]-4-[2-(N-isopropylanilino)ethyl]piperazine]
36 | 3.3 | CC(C)C(C#N)(CCCN1CCN(CCOc2ccc(Br)cc2)CC1)c1ccccc1 (stereo not drawn) [Example 108, 1-[(4-Cyano-5-methyl-4-phenyl)hexyl]-4-[2-(4-bromophenoxy)ethyl]piperazine]
37 | 4 | N#CC(CCCN1CCN(CCOc2ccc(F)cc2)CC1)(c1ccccc1)C1CCCCC1 (stereo not drawn) [Example 38]
38 | 9.2 | CC(C)C(C#N)(CCCN1CCN(CCOc2cccc3ncccc23)CC1)c1ccccc1 (stereo not drawn) [Example 101, 1-[(4-Cyano-5-methyl-4-phenyl)hexyl]-4-[2-(5-quinolyloxy)ethyl]piperazine]
39 | 7.2 | CCC(C#N)(CCCN1CCN(CCOc2ccc(F)cc2)CC1)c1ccccc1 (stereo not drawn) [Example 28, 1-[(4-Cyano-4-phenyl)hexyl]-4-[2-(4-fluorophenoxy)ethyl]piperazine]
40 | 5.5 | CC(C)C(C#N)(CCCN1CCN(CCOc2cccc(F)c2)CC1)c1cccs1 (stereo not drawn) [Example 116, 1-[4-Cyano-5-methyl-4-(2-thienyl)hexyl]-4-[2-(3-fluorophenoxy)ethyl]piperazine]
41 | 16 | CC(C)C(C#N)(CCCN1CCN(CCOc2ccccc2C#N)CC1)c1ccccc1 (stereo not drawn) [Example 46, 1-[(4-Cyano-5-methyl-4-phenyl)hexyl]-4-[2-(2-cyanophenoxy)ethyl]piperazine]

Row | Structure (SMILES) | IC50 [µM]
42 | COc1ccc(CCN(C)CCCC(C#N)(c2ccc(OC)c(OC)c2)C(C)C)cc1OC (stereo not drawn) [Control, verapamil hydrochloride, reference compound] | > 16

— patent US6737425B1, “N,N-substituted cyclic amine derivatives” (Eisai Co., Ltd., priority 1998, dated 2004)
